The results in this text go back to the supplement of paper PMC10307832.

What all share (experiment): relative viability (nuclei count vs DMSO), 5 days (fraction); higher = more cells survive
Compound in the assay “Salubrinal + AZD7762”: O=C(/C=C/c1ccccc1)NC(NC(=S)Nc1cccc2cccnc12)C(Cl)(Cl)Cl [Salubrinal] + NC(=O)Nc1cc(-c2cccc(F)c2)sc1C(=O)N[C@H]1CCCNC1 [AZD7762] (partner 0.2 µM)
The essentials:
(§1)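 Cells from lung cancer lines were seeded into 1536-well plates and, one day later, dosed by pin tool. Treatments were either a single drug or a fixed dose of an anchor drug with five library-drug doses (not always all listed) in √10 steps. After 5 days, nuclei were stained in a one-step fixation (final 0.05% Triton X-100, 1% formaldehyde, 1 ug/ml Hoechst) and counted on 4× images, and relative viability is the treated-to-vehicle nuclei ratio, as the median of duplicate plates.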

Compound in assay [1]: Cc1ccc2nc(NCCN)c3ncc(C)n3c2c1 + CS(=O)(=O)CCNCc1ccc(-c2ccc3ncnc(Nc4ccc(OCc5cccc(F)c5)c(Cl)c4)c3c2)o1 [Lapatinib] (partner 2 µM)
The essentials: as §1

Compound in the assay “Salubrinal + OSI-027”: O=C(/C=C/c1ccccc1)NC(NC(=S)Nc1cccc2cccnc12)C(Cl)(Cl)Cl [Salubrinal] + COc1cccc2cc(-c3nc([C@H]4CC[C@H](C(=O)O)CC4)n4ncnc(N)c34)[nH]c12 [OSI-027] (partner 0.5 µM)
The gist of the method:
as §1

Compound in assay [2]: Cc1ccc2nc(NCCN)c3ncc(C)n3c2c1 + COc1cc2c(Oc3ccc(NC(=O)C4(C(=O)Nc5ccc(F)cc5)CC4)cc3F)ccnc2cc1OCCCN1CCOCC1 [Foretinib] (partner 0.25 µM)
The gist of the method:
as §1

Regarding NCI-H2347, the relative viability with Salubrinal + AZD7762 (first compound 0.08 µM) came out at 0.537; with Salubrinal + AZD7762 (first compound 0.253 µM), 0.82; with Salubrinal + AZD7762 (first compound 0.8 µM) it was 0.919; with Salubrinal + AZD7762 (first compound 2.53 µM), 0.749; with Salubrinal + AZD7762 (first compound 8 µM), 0.744; in assay [1] (first compound 0.04 µM), 0.99. Besides, the relative viability came out at 0.99 in assay [1] (first compound 0.1265 µM); 0.908 in assay [1] (first compound 0.4 µM); 0.987 in assay [1] (first compound 1.265 µM); 0.87 in assay [1] (first compound 4 µM); 0.289 with Salubrinal + OSI-027 (first compound 0.08 µM); 0.308 with Salubrinal + OSI-027 (first compound 0.253 µM). The relative viability came out at 0.379 with Salubrinal + OSI-027 (first compound 0.8 µM); 0.349 with Salubrinal + OSI-027 (first compound 2.53 µM); 0.422 in the assay with Salubrinal + OSI-027 (first compound 8 µM); 1.2 in assay [2] (first compound 0.04 µM); 0.741 in assay [2] (first compound 0.1265 µM); 1.02 in assay [2] (first compound 0.4 µM). Besides, the relative viability in assay [2] (first compound 1.265 µM) amounted to 0.869; in assay [2] (first compound 4 µM), 0.792.

Take NCI-H2405: the relative viability in the assay with Salubrinal + AZD7762 (first compound 0.08 µM) was determined as 0.872; in the assay with Salubrinal + AZD7762 (first compound 0.253 µM), 0.704; with Salubrinal + AZD7762 (first compound 0.8 µM) it was 0.835; with Salubrinal + AZD7762 (first compound 2.53 µM) it was 0.813; in the assay with Salubrinal + AZD7762 (first compound 8 µM), 0.664; in assay [1] (first compound 0.04 µM), 1.06. Further, the relative viability came out at 1.06 in assay [1] (first compound 0.1265 µM); 1.06 in assay [1] (first compound 0.4 µM); 1.08 in assay [1] (first compound 1.265 µM); 0.835 in assay [1] (first compound 4 µM); 0.614 with Salubrinal + OSI-027 (first compound 0.08 µM); 0.643 with Salubrinal + OSI-027 (first compound 0.253 µM). Further, the relative viability in the assay with Salubrinal + OSI-027 (first compound 0.8 µM) stood at 0.664; with Salubrinal + OSI-027 (first compound 2.53 µM), 0.637; with Salubrinal + OSI-027 (first compound 8 µM), 0.599; in assay [2] (first compound 0.04 µM) it was 1.05; in assay [2] (first compound 0.1265 µM), 1.04; in assay [2] (first compound 0.4 µM), 1.05. The figures for the relative viability in assay [2] (first compound 1.265 µM) and in assay [2] (first compound 4 µM) were 0.978 and 0.986, respectively.

Turning to NCI-H3122, the relative viability was found to be 1.16 in the assay with Salubrinal + AZD7762 (first compound 0.08 µM); 0.979 in the assay with Salubrinal + AZD7762 (first compound 0.253 µM); 1.07 in the assay with Salubrinal + AZD7762 (first compound 0.8 µM); 1.1 with Salubrinal + AZD7762 (first compound 2.53 µM); 1.05 in the assay with Salubrinal + AZD7762 (first compound 8 µM); 1.06 in assay [1] (first compound 0.04 µM). The relative viability in assay [1] (first compound 0.1265 µM) is 0.994; in assay [1] (first compound 0.4 µM), 0.997; in assay [1] (first compound 1.265 µM) it was 1.12; in assay [1] (first compound 4 µM), 1; with Salubrinal + OSI-027 (first compound 0.08 µM) it was 1.21; with Salubrinal + OSI-027 (first compound 0.253 µM), 0.885. Also, the relative viability stood at 1.32 in the assay with Salubrinal + OSI-027 (first compound 0.8 µM); 1.03 with Salubrinal + OSI-027 (first compound 2.53 µM); 1.07 in the assay with Salubrinal + OSI-027 (first compound 8 µM); 0.928 in assay [2] (first compound 0.04 µM); 0.981 in assay [2] (first compound 0.1265 µM); 0.924 in assay [2] (first compound 0.4 µM). The relative viability in assay [2] (first compound 1.265 µM) stood at 1.07; in assay [2] (first compound 4 µM) it was 0.875.

With PC-3 [JPC-3], the relative viability in the assay with Salubrinal + AZD7762 (first compound 0.08 µM) amounted to 0.833; with Salubrinal + AZD7762 (first compound 0.253 µM), 0.67; with Salubrinal + AZD7762 (first compound 0.8 µM), 0.923; with Salubrinal + AZD7762 (first compound 2.53 µM), 0.928; with Salubrinal + AZD7762 (first compound 8 µM) it was 0.671; in assay [1] (first compound 0.04 µM) it was 0.475. The relative viability was found to be 0.45 in assay [1] (first compound 0.1265 µM); 0.42 in assay [1] (first compound 0.4 µM); 0.448 in assay [1] (first compound 1.265 µM); 0.424 in assay [1] (first compound 4 µM); 0.7 in the assay with Salubrinal + OSI-027 (first compound 0.08 µM); 0.538 in the assay with Salubrinal + OSI-027 (first compound 0.253 µM). Moreover, the relative viability in the assay with Salubrinal + OSI-027 (first compound 0.8 µM) was determined as 0.751; with Salubrinal + OSI-027 (first compound 2.53 µM), 0.913; with Salubrinal + OSI-027 (first compound 8 µM), 0.729; in assay [2] (first compound 0.04 µM), 1.1; in assay [2] (first compound 0.1265 µM), 1.04; in assay [2] (first compound 0.4 µM), 0.934. The relative viability in assay [2] (first compound 1.265 µM) was found to be 0.986; in assay [2] (first compound 4 µM), 1.09.

Regarding PC-14, the relative viability is 0.485 with Salubrinal + AZD7762 (first compound 0.08 µM); 0.422 with Salubrinal + AZD7762 (first compound 0.253 µM); 0.418 in the assay with Salubrinal + AZD7762 (first compound 0.8 µM); 0.365 with Salubrinal + AZD7762 (first compound 2.53 µM); 0.367 with Salubrinal + AZD7762 (first compound 8 µM); 0.398 in assay [1] (first compound 0.04 µM). In addition, the relative viability came out at 0.307 in assay [1] (first compound 0.1265 µM); 0.41 in assay [1] (first compound 0.4 µM); 0.289 in assay [1] (first compound 1.265 µM); 0.295 in assay [1] (first compound 4 µM); 0.966 with Salubrinal + OSI-027 (first compound 0.08 µM); 0.822 in the assay with Salubrinal + OSI-027 (first compound 0.253 µM). In addition, the relative viability in the assay with Salubrinal + OSI-027 (first compound 0.8 µM) came to 0.98; with Salubrinal + OSI-027 (first compound 2.53 µM), 0.798; in the assay with Salubrinal + OSI-027 (first compound 8 µM) it was 0.616; in assay [2] (first compound 0.04 µM), 0.944; in assay [2] (first compound 0.1265 µM), 0.908; in assay [2] (first compound 0.4 µM), 0.984. The relative viability in assay [2] (first compound 1.265 µM) was 0.933; in assay [2] (first compound 4 µM) it was 0.943.

As for RERF-LC-KJ, the relative viability came out at 1.05 with Salubrinal + AZD7762 (first compound 0.08 µM); 0.917 with Salubrinal + AZD7762 (first compound 0.253 µM); 1.1 with Salubrinal + AZD7762 (first compound 0.8 µM); 0.999 with Salubrinal + AZD7762 (first compound 2.53 µM); 0.885 in the assay with Salubrinal + AZD7762 (first compound 8 µM); 0.834 in assay [1] (first compound 0.04 µM). Besides, the relative viability in assay [1] (first compound 0.1265 µM) came out at 0.925; in assay [1] (first compound 0.4 µM) it was 0.911; in assay [1] (first compound 1.265 µM), 0.809; in assay [1] (first compound 4 µM), 0.84; in the assay with Salubrinal + OSI-027 (first compound 0.08 µM), 0.595; in the assay with Salubrinal + OSI-027 (first compound 0.253 µM) it was 0.512. Moreover, the relative viability was 0.58 with Salubrinal + OSI-027 (first compound 0.8 µM); 0.548 with Salubrinal + OSI-027 (first compound 2.53 µM); 0.437 with Salubrinal + OSI-027 (first compound 8 µM); 0.911 in assay [2] (first compound 0.04 µM); 0.845 in assay [2] (first compound 0.1265 µM); 0.851 in assay [2] (first compound 0.4 µM). The relative viability amounted to 0.796 in assay [2] (first compound 1.265 µM) and 0.828 in assay [2] (first compound 4 µM).
